Test results from patent publication US4992466A, “Polycyclic ether antibiotic” (Pfizer Inc., priority 1986, dated 1991).
In brackets after ≈: the same amount, converted by molar mass. Where two headings read alike, the source gives them in different places.

Experiments:
Clostridium perfringens = assay: microbe, parasite or virus in culture; assay type: cell-based; details: 24 h
Actinomyces pyogenes = assay: in vitro antibacterial MIC (tube dilution, 24 hours); assay type: cell-based
Protocol: (§1) In Table I, below, the results of in vitro tests are summarized. For this test each organism is inoculated in a series of test tubes containing nutrient medium and varying concentrations of Antibiotic UK No.-61,689 to determine the minimal concentration of the compound in μg./ml. which inhibits the growth of the organism over a period of 24 hours (MIC).

Treponema hyodysenteriae = assay: as above; assay type: cell-based; details: Brachyspira hyodysenteriae
Protocol: as §1

rumen fluid = assay: in vitro rumen technique, propionic acid production; assay type: cell-based, cow; details: 20 micrograms per milliliter, 39° C., about 16 hours, read-out: increase in the production of propionic acid over control solution
Protocol: The value of animal feeds has generally been determined directly by feeding the animal. British Patent Specification No. 1,197,826 details an in vitro rumen technique whereby the changes occurring in feed brought about by microorganisms are measured more readily and with great accuracy in the evaluation of animal feeds. This technique involves the use of an apparatus in which the digestive processes of the animals are conducted and studied in vitro. The animal feeds, rumen inoculum and various growth promotants are introduced into and withdrawn from a laboratory unit under carefully controlled conditions and the changes taking place are studied critically and progressively during the consumption of the feed by the microorganisms. […] The change in propionic acid content is expressed as percent of the propionic acid content found in the control rumen fluid. Long term in vivo feeding studies are used to show a reliable correlation between propionic acid increase in the rumen fluid and improved animal performance. […]
After incubation, 5 ml. of the sample is mixed with 1 ml. of 25% metaphosphoric acid. […] Samples are then analyzed by gas-liquid chromatography by the method of D. W. Kellog, J. Dairy Science, 52, 1690, 1969. Peak heights for acetic, propionic and butyric acids are determined for samples from untreated and treated incubation flasks.

coccidial infections = assay: activity against coccidial infections in poultry (lesion scores); details: in diet of chickens
Eimeria tenella = assay: efficacy against coccidial infection in chickens (lesion scores); details: in diet of chickens at 15 to 120 ppm; six days
E. acervulina = assay: as above; details: in diet of chickens at 15 to 120 ppm; five days
E. maxima = assay: as above; details: in diet of chickens at 15 to 120 ppm; six days
E. brunetti = assay: as above; details: in diet of chickens at 15 to 120 ppm; six days
E. necatrix = assay: as above; details: in diet of chickens at 15 to 120 ppm; six days

**Q.** With COC1CCC(OC2CC(C3OC(C)(O)C(C)CC3C)OC2C2(C)CCC(C3(C)CCC4(CC(O)C(C)C(C(C)C5OC(O)(CC(=O)O)C(C)C(O)C5OC)O4)O3)O2)OC1C (stereo not shown) [Antibiotic UK No.-61,689] as the compound, how does the MIC (Clostridium perfringens; strain 10A006) read?
**A.** 25 µg/mL (≈ 28.6 µM)

**Q.** What about the MIC (Clostridium perfringens; strain 10A009) of the same compound?
**A.** 3.12 µg/mL (≈ 3.57 µM)

**Q.** And the MIC (Actinomyces pyogenes; Trueperella pyogenes, strain 14D002, read-out: MIC)?
**A.** 0.39 µg/mL (≈ 0.447 µM)

**Q.** And the MIC (Actinomyces pyogenes; strain 14D008)?
**A.** 0.39 µg/mL (≈ 0.447 µM)

**Q.** What about the MIC (Actinomyces pyogenes; strain 14D011) of the same compound?
**A.** 0.39 µg/mL (≈ 0.447 µM)

**Q.** What about the MIC (Treponema hyodysenteriae; strain 94A001) of the same compound?
**A.** 6.25 µg/mL (≈ 7.16 µM)

**Q.** What about the MIC (Treponema hyodysenteriae; strain 94A002) of the same compound?
**A.** 6.25 µg/mL (≈ 7.16 µM)

**Q.** What about the MIC (Treponema hyodysenteriae; strain 94A007) of the same compound?
**A.** 3.12 µg/mL (≈ 3.57 µM)

**Q.** And the MIC (Treponema hyodysenteriae; strain 94A008)?
**A.** 3.12 µg/mL (≈ 3.57 µM)

**Q.** What about the activation at 20 µg/mL (rumen fluid) of the same compound?
**A.** ~80%

**Q.** And the “activity against coccidial infections in poultry” value (coccidial infections)?
**A.** excellent activity

**Q.** What about the “controlling infections due to Eimeria tenella” value (Eimeria tenella) of the same compound?
**A.** effective in controlling infections

**Q.** What about the “controlling infections due to E. acervulina” value (E. acervulina) of the same compound?
**A.** effective in controlling infections

**Q.** What about the “controlling infections due to E. maxima” value (E. maxima) of the same compound?
**A.** effective in controlling infections

**Q.** What about the “controlling infections due to E. brunetti” value (E. brunetti) of the same compound?
**A.** effective in controlling infections

**Q.** What about the “controlling infections due to E. necatrix” value (E. necatrix) of the same compound?
**A.** effective in controlling infections
